From patent US20210108180A1, “ELECTROCONDUCTIVE DECELLULARIZED EXTRACELLULAR MATRIX COMPOSITIONS FOR PREPARATION OF ENGINEERED TISSUES AND RELATED METHODS” (University of Washington, priority 2019, published 2021)
Like-named read-outs stand apart in the source and are kept apart here.

Columns and labels:
[1] = test system: cardiac tissues bioprinted using dECM bioink (hiPSC-derived cardiomyocytes and HS27A stromal cells); test: Cisapride cardiotoxicity dose response, FluoVolt imaging, tissues printed with dECM bioink; format: cell-based; details: Homo sapiens, HS-27A
Description: (§1) Tissues and support structures were bioprinted using a commercially available dual-extruder pneumatic bioprinter (Allevi BioBot 1). Five pairs of polycaprolactone (PCL) posts 1 mm in diameter, 5 mm tall, and 10 mm apart were printed in each well of a standard 6-well plate. An approximately 2 mm thick layer of NOA 83H resin (Norland Optical Adhesives) was then deposited onto the bottom of each well and cured by a 30 min exposure to UV light. Plates containing anchored posts were then sterilized by immersion in 70% v/v ethanol and subsequent UV light exposure. Sacrificial wells 12 mm×5 mm×1 mm (length×width×depth) were then printed around each post pair using 40% w/v Pluronic F-127, followed by approximately 50 μL of cell-laden hydrogel bioinks with the same cell densities as used in the EHT platform (20×10^6 hiPSC-derived cardiomyocytes/mL and 5×10^6 HS27A stromal cells/mL). Completed plates were then incubated at 37° C. and 5% CO2 for approximately 60 min, after which 5 mL of RPMI/B-27 with insulin (supplemented with Y-27632 dihydrochloride ROCK inhibitor and 1% penicillin/streptomycin) was added to each well. After 24 hrs, the media was replaced with fresh RPMI/B-27 with insulin and media changes were conducted every other day until tissues were used for drug screening. Exemplary cardiac tissues were bioprinted using dECM and dECM-rGO bioinks disclosed herein and cultured for 14 and 35 days. At these time points, tissues were washed with warm PBS before being incubated in medium containing a 1000X dilution of stock FluoVolt for 1 hr at 37° C., after which tissues were washed twice with warm Tyrode's buffer and incubated in Tyrode's containing 0.01, 0.1, 1, 5, 10, 50, 100, and 1000 nM cisapride (Sigma-Aldrich) dissolved in dimethyl sulfoxide (DMSO) for 45 mins. A group of tissues were also incubated in Tyrode's containing no cisapride, but an equivalent volume of DMSO (1 μL DMSO/mL Tyrode's). Functional response of these tissues to administered drug was assessed using FluoVolt dye in conjunction with live-tissue imaging as described above. Change in beat interval (ABI) was determined by measuring that duration of elapsed time between individual beats (the beat interval) and calculating the difference in this interval from one beat to the next. APD90 values were calculated as described above. Best-fit dose response curves were calculated using GraphPad Prism software. Drug concentration values were first transformed to a log scale and APD90 or ABI values were normalized such that the lowest value was set at 0% and the largest value at 100%. Finally, the normalized data was fit to a non-linear dose response curve using a least squares fit.

[2] = reported ETPC range; cited from earlier work
[3] = test system: cardiac tissues bioprinted using dECM-rGO bioink (hiPSC-derived cardiomyocytes and HS27A stromal cells); test: Cisapride cardiotoxicity dose response, FluoVolt imaging, tissues printed with dECM-rGO bioink; format: cell-based; details: Homo sapiens, HS-27A
Description: as §1

[4] = 336 h, Day 14 of culture, change in beat interval, read-out: IC50 (ΔBI)
[5] = Day 35 of culture, change in beat interval, read-out: IC50 (ΔBI)
[6] = Day 35 of culture, read-out: IC50 (APD90)

With `COc1cc(N)c(Cl)cc1C(=O)NC1CCN(CCCOc2ccc(F)cc2)CC1OC` (stereo not drawn) [cisapride] the IC50 [1, 4] was 73.4 ± 1.4 nM, the IC50 ([1]; 336 h, Day 14 of culture, read-out: IC50 (APD90)) was 61.8 ± 1.4 nM and the IC50 [1, 5] was 7.3 ± 1.2 nM. For the same molecule, the IC50 [1, 6] was 2 ± 1.3 nM, the “effective therapeutic plasma concentration (ETPC)” value [2] was 2.6 to 4.9 nM and the IC50 [3, 4] was 8.6 ± 1.2 nM. The IC50 ([3]; Day 14 of culture, 45 min cisapride, read-out: IC50 (APD90)) was 2.5 ± 1.3 nM, the IC50 [3, 5] was 3.1 ± 1.3 nM and the IC50 [3, 6] was 1.8 ± 1.4 nM.
